# Test results: US20230123334A1, “AMINO LIPID COMPOUND, PREPARATION METHOD THEREFOR, AND APPLICATION THEREOF” (SHENZHEN SHENXIN BIOTECHNOLOGY CO., LTD., priority 2020, published 2023)
# System: HEK293 cells
# Test: Preliminary screening as DNA vectors, GFP transfection of HEK293 cells
# Type: cell-based
# Details: amino lipid/DOPE liposome with 75 ng plasmid DNA (psin-EGFP-IRES-Puro); number of GFP-expressing cells divided by total nuclei (Hoechst)
# Method in brief: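 Lipid + DOPE liposomes (NaOAc, pH 5.6) complexed w/ 75 ng psin-EGFP-IRES-Puro, 30 min RT; added to 3-5×10^4 HEK293/well, 37° C. Hoechst 0.2 μg/mL at 20-24 h, imaged after further 20-24 h. Efficiency = GFP+ cells / total nuclei.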
row,Structure (SMILES),Absolute DNA transfection efficiency in HEK293 cells [%]
1,CCCCCCCCCCCCCCCNc1nc(NCCN2CCN(C)CC2)nc(SCCCCCCCCCCCCCC)n1 [S14N15 D5],0.4
2,CCCCCCCCCCCCCCCNc1nc(NCCCN(C)C)nc(SCCCCCCCCCCCCCC)n1 [S14N15 D6],0.8
3,CCCCCCCCCCCCCCCNc1nc(NCCN(CC)CC)nc(SCCCCCCCCCCCCCC)n1 [S14N15 D7],1.1
4,CCCCCCCCCCCCCCCNc1nc(NCCCN2CCOCC2)nc(SCCCCCCCCCCCCCC)n1 [S14N15 D8],0.3
5,CCCCCCCCCCCCCCCNc1nc(NCCCN2CCN(C)CC2)nc(SCCCCCCCCCCCCCC)n1 [S14N15 D9],0.7
6,CCCCCCCCCCCCCCCNc1nc(NCC2CCN(C)CC2)nc(SCCCCCCCCCCCCCC)n1 [S14N15 D10],0.7
7,CCCCCCCCCCCCCCCCNc1nc(NCCN(C)C)nc(SCCCCCCCCCCCCCC)n1 [S14N16 D1],0.7
8,CCCCCCCCCCCCCCCCNc1nc(NCCN2CCOCC2)nc(SCCCCCCCCCCCCCC)n1 [S14N16 D2],0.0
9,CCCCCCCCCCCCCCCCNc1nc(NCCN2CCCC2)nc(SCCCCCCCCCCCCCC)n1 [S14N16 D3],1.3
10,CCCCCCCCCCCCCCCCNc1nc(NCCN2CCCCC2)nc(SCCCCCCCCCCCCCC)n1 [S14N16 D4],1.9
11,CCCCCCCCCCCCCCCCNc1nc(NCCN2CCN(C)CC2)nc(SCCCCCCCCCCCCCC)n1 [S14N16 D5],0.9
12,CCCCCCCCCCCCCCCCNc1nc(NCCCN(C)C)nc(SCCCCCCCCCCCCCC)n1 [S14N16 D6],0.8
13,CCCCCCCCCCCCCCCCNc1nc(NCCN(CC)CC)nc(SCCCCCCCCCCCCCC)n1 [S14N16 D7],1.3
14,CCCCCCCCCCCCCCCCNc1nc(NCCCN2CCOCC2)nc(SCCCCCCCCCCCCCC)n1 [S14N16 D8],0.1
15,CCCCCCCCCCCCCCCCNc1nc(NCCCN2CCN(C)CC2)nc(SCCCCCCCCCCCCCC)n1 [S14N16 D9],0.9
16,CCCCCCCCCCCCCCCCNc1nc(NCC2CCN(C)CC2)nc(SCCCCCCCCCCCCCC)n1 [S14N16 D10],0.7
17,CCCCCCCCCCCCCCCCCCNc1nc(NCCN(C)C)nc(SCCCCCCCCCCCCCC)n1 [S14N18 D1],0.9
18,CCCCCCCCCCCCCCCCCCNc1nc(NCCN2CCOCC2)nc(SCCCCCCCCCCCCCC)n1 [S14N18 D2],0.0
19,CCCCCCCCCCCCCCCCCCNc1nc(NCCN2CCCC2)nc(SCCCCCCCCCCCCCC)n1 [S14N18 D3],1.7
20,CCCCCCCCCCCCCCCCCCNc1nc(NCCN2CCCCC2)nc(SCCCCCCCCCCCCCC)n1 [S14N18 D4],0.7
21,CCCCCCCCCCCCCCCCCCNc1nc(NCCN2CCN(C)CC2)nc(SCCCCCCCCCCCCCC)n1 [S14N18 D5],0.6
22,CCCCCCCCCCCCCCCCCCNc1nc(NCCCN(C)C)nc(SCCCCCCCCCCCCCC)n1 [S14N18 D6],0.9
23,CCCCCCCCCCCCCCCCCCNc1nc(NCCN(CC)CC)nc(SCCCCCCCCCCCCCC)n1 [S14N18 D7],1.2
24,CCCCCCCCCCCCCCCCCCNc1nc(NCCCN2CCOCC2)nc(SCCCCCCCCCCCCCC)n1 [S14N18 D8],0.1
25,CCCCCCCCCCCCCCCCCCNc1nc(NCCCN2CCN(C)CC2)nc(SCCCCCCCCCCCCCC)n1 [S14N18 D9],0.3

row,Structure (SMILES),Absolute DNA transfection efficiency in HEK293 cells [%]
1,CCCCCCCCCCCCCCCCCCNc1nc(NCC2CCN(C)CC2)nc(SCCCCCCCCCCCCCC)n1 [S14N18 D10],0.1
2,CCCCCCCCCCCCCCSc1nc(NCCN(C)C)nc(N(CCCCCCCCCCCC)CCCCCCCCCCCC)n1 [S14^2N12 D1],0.3
3,CCCCCCCCCCCCCCSc1nc(NCCN2CCOCC2)nc(N(CCCCCCCCCCCC)CCCCCCCCCCCC)n1 [S14^2N12 D2],0.0
4,CCCCCCCCCCCCCCSc1nc(NCCN2CCCC2)nc(N(CCCCCCCCCCCC)CCCCCCCCCCCC)n1 [S14^2N12 D3],0.2
5,CCCCCCCCCCCCCCSc1nc(NCCN2CCCCC2)nc(N(CCCCCCCCCCCC)CCCCCCCCCCCC)n1 [S14^2N12 D4],0.0
6,CCCCCCCCCCCCCCSc1nc(NCCN2CCN(C)CC2)nc(N(CCCCCCCCCCCC)CCCCCCCCCCCC)n1 [S14^2N12 D5],0.0
7,CCCCCCCCCCCCCCSc1nc(NCCCN(C)C)nc(N(CCCCCCCCCCCC)CCCCCCCCCCCC)n1 [S14^2N12 D6],0.2
8,CCCCCCCCCCCCCCSc1nc(NCCN(CC)CC)nc(N(CCCCCCCCCCCC)CCCCCCCCCCCC)n1 [S14^2N12 D7],0.1
9,CCCCCCCCCCCCCCSc1nc(NCCCN2CCOCC2)nc(N(CCCCCCCCCCCC)CCCCCCCCCCCC)n1 [S14^2N12 D8],0.0
10,CCCCCCCCCCCCCCSc1nc(NCCCN2CCN(C)CC2)nc(N(CCCCCCCCCCCC)CCCCCCCCCCCC)n1 [S14^2N12 D9],0.0
11,CCCCCCCCCCCCCCSc1nc(NCC2CCN(C)CC2)nc(N(CCCCCCCCCCCC)CCCCCCCCCCCC)n1 [S14^2N12 D10],0.0
12,CCCCCCCCCCCCCCCSc1nc(NCCCCCC)nc(NCCN(C)C)n1 [S15N6 D1],21.2
13,CCCCCCCCCCCCCCCSc1nc(NCCCCCC)nc(NCCN2CCOCC2)n1 [S15N6 D2],34.1
14,CCCCCCCCCCCCCCCSc1nc(NCCCCCC)nc(NCCN2CCCC2)n1 [S15N6 D3],32.4
15,CCCCCCCCCCCCCCCSc1nc(NCCCCCC)nc(NCCN2CCCCC2)n1 [S15N6 D4],21.6
16,CCCCCCCCCCCCCCCSc1nc(NCCCCCC)nc(NCCN2CCN(C)CC2)n1 [S15N6 D5],14.9
17,CCCCCCCCCCCCCCCSc1nc(NCCCCCC)nc(NCCCN(C)C)n1 [S15N6 D6],34.2
18,CCCCCCCCCCCCCCCSc1nc(NCCCCCC)nc(NCCN(CC)CC)n1 [S15N6 D7],5.1
19,CCCCCCCCCCCCCCCSc1nc(NCCCCCC)nc(NCCCN2CCOCC2)n1 [S15N6 D8],19.8
20,CCCCCCCCCCCCCCCSc1nc(NCCCCCC)nc(NCCCN2CCN(C)CC2)n1 [S15N6 D9],15.4
21,CCCCCCCCCCCCCCCSc1nc(NCCCCCC)nc(NCC2CCN(C)CC2)n1 [S15N6 D10],26.5
22,CCCCCCCCCCCCCCCSc1nc(NCCCCCCC)nc(NCCN(C)C)n1 [S15N7 D1],18.2
23,CCCCCCCCCCCCCCCSc1nc(NCCCCCCC)nc(NCCN2CCOCC2)n1 [S15N7 D2],23.0
24,CCCCCCCCCCCCCCCSc1nc(NCCCCCCC)nc(NCCN2CCCC2)n1 [S15N7 D3],19.7
